Experimental findings from publication PMC2241828, “Amyloglucosidase enzymatic reactivity inside lipid vesicles” (Journal of Biological Engineering, 2007) are described below.

Molecules are shown by their SMILES.

For the assay, the target named is T1, amyloglucosidase (AMG), EC 3.2.1.3 (Aspergillus niger, UniProt P69328).
T1 construct: gene GLAA; commercial enzyme solution (Sigma A-3042), diluted with water
The assay can be described thus: initial rates plus fit of glucose-time curves (HPLC, starch-iodine) to Michaelis-Menten model with product inhibition. Conditions: free enzyme; soluble starch as substrate; pH 4.5, 55 °C; competitive product inhibition (assumed model); read-out: Ki (mg mL^-1) (converted). In kind it is biochemical.

T1 sequence (P69328 25-640): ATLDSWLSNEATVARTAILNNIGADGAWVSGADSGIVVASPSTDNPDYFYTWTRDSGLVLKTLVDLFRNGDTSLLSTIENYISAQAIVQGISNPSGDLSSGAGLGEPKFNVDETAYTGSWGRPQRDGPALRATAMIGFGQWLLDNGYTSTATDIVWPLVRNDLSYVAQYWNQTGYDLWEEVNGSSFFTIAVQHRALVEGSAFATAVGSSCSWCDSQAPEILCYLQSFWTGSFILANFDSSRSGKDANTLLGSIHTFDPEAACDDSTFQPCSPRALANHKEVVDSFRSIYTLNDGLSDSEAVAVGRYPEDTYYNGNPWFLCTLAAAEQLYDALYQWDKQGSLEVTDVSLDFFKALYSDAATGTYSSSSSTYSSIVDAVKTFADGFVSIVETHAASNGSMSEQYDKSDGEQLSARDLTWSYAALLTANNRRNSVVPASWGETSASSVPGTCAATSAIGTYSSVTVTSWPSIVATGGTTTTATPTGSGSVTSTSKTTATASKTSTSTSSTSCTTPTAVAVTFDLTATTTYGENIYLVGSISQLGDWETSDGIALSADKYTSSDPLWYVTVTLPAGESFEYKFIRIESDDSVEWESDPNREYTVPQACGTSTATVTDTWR

As for `OC[C@H]1OC(O)[C@H](O)[C@@H](O)[C@@H]1O` (stereo partly shown) [glucose], the Ki was 555 µM.

By Ki is commonly meant the dissociation constant of the complex between target and ligand, obtained from inhibition or displacement.
